Data published in publication PMC6099558, “N-oxide alkaloids from Crinum amabile (Amaryllidaceae)” (Molecules : A Journal of Synthetic Chemistry and Natural …, 2018).
≈ marks a conversion by molar mass, not a printed value. Like-named read-outs stand apart in the source and are kept apart here.

Tests used:
[1] = tested on: Trypanosoma cruzi (axenic grown amastigotes forms, Tulahuen C4 strain); assay: In vitro antiprotozoal activity against T. cruzi; assay type: cell-based; details: read-out: T. cruzi IC50
Experimental: (§1) In vitro tests for the biological activity of the alkaloids isolated from C. amabile against Trypanosoma brucei rhodesiense (trypomastigotes forms, STIB 900 strain), Trypanosoma cruzi (axenic grown amastigotes forms, Tulahuen C4 strain), Leishmania donovani (amastigotes forms, MHOM-ET-67/L82 strain), and Plasmodium falciparum (intraerythrocytic forms, IEF, NF54 strain) and a cytotoxicity test against the mammalian L6 cell line from rat skeletal myoblasts were carried out at the Swiss Tropical and Public Health Institute (Swiss TPH, Basel, Switzerland) according to established protocols as described by Orhan and co-workers. The reference drugs used in these assays were melarsoprol, benznidazole, miltefosine, chloroquine and podophyllotoxin, respectively.

[2] = tested on: Trypanosoma brucei rhodesiense (trypomastigotes forms, STIB 900 strain); assay: In vitro antiprotozoal activity against T. brucei rhodesiense; assay type: cell-based; details: read-out: T. brucei rhodesiense IC50
Experimental: as §1

[3] = Cytotoxicity test against mammalian L6 cell line; assay type: cell-based; details: L6 cells (rat skeletal myoblasts)
Experimental: as §1

[4] = tested on: Leishmania donovani (amastigotes forms, MHOM-ET-67/L82 strain); assay: In vitro antiprotozoal activity against L. donovani; assay type: cell-based; details: read-out: L. donovani IC50
Experimental: as §1

[5] = tested on: Plasmodium falciparum (intraerythrocytic forms, IEF, NF54 strain); assay: In vitro antiprotozoal activity against P. falciparum NF54; assay type: cell-based
Experimental: as §1

[6] = target: AChE (Electrophorus electricus, UniProt O42275); assay: Acetylcholinesterase inhibitory activity (Ellman method, modified); assay type: biochemical
AChE, sequence (O42275 24-633): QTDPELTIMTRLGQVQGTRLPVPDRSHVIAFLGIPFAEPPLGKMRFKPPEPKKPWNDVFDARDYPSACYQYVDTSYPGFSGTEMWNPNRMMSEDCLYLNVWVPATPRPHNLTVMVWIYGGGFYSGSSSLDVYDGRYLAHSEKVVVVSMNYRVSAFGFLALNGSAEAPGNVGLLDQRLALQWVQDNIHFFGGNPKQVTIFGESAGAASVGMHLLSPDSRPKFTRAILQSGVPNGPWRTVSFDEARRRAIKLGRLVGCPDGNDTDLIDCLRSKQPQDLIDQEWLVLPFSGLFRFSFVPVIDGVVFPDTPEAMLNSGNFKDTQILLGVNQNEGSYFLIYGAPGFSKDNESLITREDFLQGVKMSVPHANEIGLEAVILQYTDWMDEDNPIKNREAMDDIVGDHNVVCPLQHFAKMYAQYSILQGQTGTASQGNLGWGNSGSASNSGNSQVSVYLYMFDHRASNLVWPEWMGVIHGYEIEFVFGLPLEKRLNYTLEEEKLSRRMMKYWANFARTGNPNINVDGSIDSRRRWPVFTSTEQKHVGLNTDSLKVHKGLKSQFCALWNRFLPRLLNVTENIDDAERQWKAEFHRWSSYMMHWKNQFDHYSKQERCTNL
Experimental: (§2) Cholinesterase inhibitory activities were analyzed as by Ellman and co-workers with some modifications as by López and co-workers. Fifty microliters of AChE or BuChE phosphate buffer (8m M K2HPO4, 2.3 mM NaH2PO4, 0.15 M NaCl, pH 7.5) and 50 μL of the sample dissolved in the same buffer were added to the wells. The plates were incubated for 30 min at room temperature before 100 μL of the substrate solution (0.1 M Na2HPO4, […], and 0.6 mM acetylthiocholine iodide, ATCI, or 0.24 mM butyrylthiocholine iodide, BTCI, in Millipore water, pH 7.5) was added. The absorbance was read in a Labsystem microplate reader (Helsinki, Finland) at 405 nm after 10 min. […] In a first step, samples were assessed at 10, 100 and 200 µg mL^−1 towards both enzymes. […] Enzyme activity was calculated as a percentage compared to an assay using a buffer without any inhibitor. The cholinesterase inhibitory data were analyzed with the software Microsoft Office Excel 2010.

[7] = target: BuChE (Equus caballus, UniProt P81908); assay: Butyrylcholinesterase inhibitory activity (Ellman method, modified); assay type: biochemical
BuChE, sequence (P81908 whole entry): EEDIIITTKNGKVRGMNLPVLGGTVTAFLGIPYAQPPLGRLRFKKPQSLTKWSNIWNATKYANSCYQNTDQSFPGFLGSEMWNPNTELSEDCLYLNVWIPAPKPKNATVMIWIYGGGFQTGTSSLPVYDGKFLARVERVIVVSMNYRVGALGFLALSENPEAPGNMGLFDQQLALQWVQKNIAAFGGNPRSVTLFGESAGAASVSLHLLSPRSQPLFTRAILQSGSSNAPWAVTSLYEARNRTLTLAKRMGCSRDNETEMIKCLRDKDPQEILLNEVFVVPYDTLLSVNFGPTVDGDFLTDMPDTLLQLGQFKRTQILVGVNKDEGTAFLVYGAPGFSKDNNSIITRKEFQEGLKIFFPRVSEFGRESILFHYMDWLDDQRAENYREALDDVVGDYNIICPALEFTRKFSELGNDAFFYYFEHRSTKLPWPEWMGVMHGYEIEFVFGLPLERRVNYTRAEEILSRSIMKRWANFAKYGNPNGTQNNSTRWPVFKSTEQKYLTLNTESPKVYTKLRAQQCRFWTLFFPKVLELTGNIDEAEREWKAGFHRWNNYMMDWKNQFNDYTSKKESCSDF
Experimental: as §2

[8] = tested on: chloroquine-sensitive strain of Plasmodium falciparum; parameters: method as in PMID 8229016; details: read-out: IC50 against chloroquine-sensitive strain of Plasmodium falciparum; cited from earlier work
[9] = tested on: chloroquine-resistant strain of Plasmodium falciparum; details: read-out: IC50 against chloroquine-resistant strain of Plasmodium falciparum; cited from earlier work
[10] = amastigotes forms, Tulahuen C4 strain
[11] = trypomastigotes forms, STIB 900 strain
[12] = amastigotes forms, MHOM-ET-67/L82 strain
[13] = intraerythrocytic forms, NF54 strain, read-out: P. falciparum IC50

| Compound | IC50 [1, 10] | IC50 [2, 11] | IC50 [3] | IC50 [4, 12] | IC50 [5, 13] | other results |
| --- | --- | --- | --- | --- | --- | --- |
| CO[C@H]1C=C[C@@]23CCN(Cc4cc5c(cc42)OCO5)[C@@H]3C1 [Buphanisine (8), Buphanisine] | 55.5 ± 4.6 µg/mL (≈ 195 µM) | 16.5 ± 0.57 µg/mL (≈ 57.8 µM) | 72.8 ± 5.02 µg/mL (≈ 255 µM) | > 100 µg/mL | 4.28 ± 0.18 µg/mL (≈ 15 µM) | AChE inhibitory activity (in words) [6]: low |
| COc1cc([C@@H]2c3cc4c(cc3[C@H](O)[C@H]3COC(=O)[C@H]23)OCO4)cc(OC)c1OC [podophyllotoxin, reference compound] | – | – | 0.004 ± 0.0007 µg/mL (≈ 0.00965 µM) | – | – | – |
| CO[C@@H]1C[C@@H]2[C@@]3(CC[N@@+]2([O-])Cc2cc4c(cc23)OCO4)[C@H]2O[C@@H]12 [Augustine N-oxide (1), Augustine N-oxide] | 66.2 ± 11.8 µg/mL (≈ 209 µM) | 58.9 ± 11.5 µg/mL (≈ 185 µM) | > 100 µg/mL | > 100 µg/mL | 36.6 ± 4.74 µg/mL (≈ 115 µM) | – |
| CCN(CC)CCCC(C)Nc1ccnc2cc(Cl)ccc12 (centres unmarked) [chloroquine, reference compound] | – | – | – | – | – | IC50 ([5]; NF54, read-out: P. falciparum IC50): 0.004 ± 0.0007 µg/mL (≈ 0.0125 µM) |
| CO[C@H]1C=C[C@@]23CC[N@@+]([O-])(Cc4cc5c(cc42)OCO5)[C@@H]3C1 [Buphanisine N-oxide (2), Buphanisine N-oxide] | 64 ± 1.34 µg/mL (≈ 213 µM) | 55.2 ± 4.31 µg/mL (≈ 183 µM) | > 100 µg/mL | > 100 µg/mL | 32.55 ± 0.07 µg/mL (≈ 108 µM) | – |
| O=C(Cn1ccnc1[N+](=O)[O-])NCc1ccccc1 [benznidazole, reference compound] | – | – | – | – | – | IC50 ([1]; TULAHUEN): 0.865 ± 0.08 µg/mL (≈ 3.32 µM) |
| CN1CCC23c4cc5c(cc4C4OC(CCC12)C3O4)OCO5 (centres unmarked) [Augustamine (22), Augustamine] | 54 ± 4.53 µg/mL (≈ 179 µM) | 19.2 ± 2.97 µg/mL (≈ 63.7 µM) | 81.55 ± 0.64 µg/mL (≈ 271 µM) | > 100 µg/mL | 20.4 ± 0.21 µg/mL (≈ 67.5 µM) | BuChE inhibitory activity (in words) [7]: did not show any cholinesterase inhibitory activities; AChE inhibitory activity (in words) [6]: did not show any cholinesterase inhibitory activities |
| CCCCCCCCCCCCCCCCOP(=O)([O-])OCC[N+](C)(C)C [miltefosine, reference compound] | – | – | – | – | – | IC50 [4]: 0.515 ± 0.06 µg/mL (≈ 1.26 µM) |
| O[C@H]1C=C[C@@]23CCN(Cc4cc5c(cc42)OCO5)[C@@H]3C1 [Crinine (10), Crinine] | 57.5 ± 6.86 µg/mL (≈ 212 µM) | 18.9 ± 0.78 µg/mL (≈ 69.8 µM) | > 100 µg/mL | > 100 µg/mL | 30.9 ± 2.19 µg/mL (≈ 114 µM) | – |
| Nc1nc(N)nc(Nc2ccc([As]3SCC(CO)S3)cc2)n1 (centres unmarked) [melarsoprol, reference compound] | – | – | – | – | – | IC50 [2]: 0.003 ± 0.001 µg/mL |
| CO[C@@H]1C[C@H]2N3CC[C@@]2(c2cc4c(cc2C3)OCO4)[C@H]2O[C@@H]12 [Augustine (13), Augustine] | 56 ± 0.71 µg/mL (≈ 186 µM) | 15.1 ± 1.06 µg/mL (≈ 49.9 µM) | > 100 µg/mL | > 100 µg/mL | 14.2 ± 0.14 µg/mL (≈ 47.1 µM) | IC50 [8]: 0.46 µM; IC50 [9]: 0.6 µM; AChE inhibitory activity (in words) [6]: moderate |
